What follows are compounds tested against T1, Recombinant human HSD17B13 enzyme (Homo sapiens, UniProt Q7Z5P4) (assay: HSD17b13 NAD(P)H-Glo biochemical assay). Details: 50 uM estradiol, 1 mM NAD+, NAD(P)H-Glo luminescence; read-out: HSD17β13 IC50.
T1 sequence (Q7Z5P4 20-300): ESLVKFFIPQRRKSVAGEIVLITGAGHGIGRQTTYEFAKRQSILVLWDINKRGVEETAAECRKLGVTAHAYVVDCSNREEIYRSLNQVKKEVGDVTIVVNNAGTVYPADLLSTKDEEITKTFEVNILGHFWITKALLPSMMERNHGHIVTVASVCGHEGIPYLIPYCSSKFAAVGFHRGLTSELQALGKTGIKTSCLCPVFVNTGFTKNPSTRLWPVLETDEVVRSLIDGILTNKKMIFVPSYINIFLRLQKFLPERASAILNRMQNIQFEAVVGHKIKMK
Outline: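 Recombinant human HSD17B13 in 20 mM Tris pH7.4 with 0.002% Tween-20 and 0.02% BSA was preincubated with inhibitor for 20 minutes at RT. The reaction ran 3 hours at 37° C with 50 uM estradiol and 1 mM NAD+ (final). NADH formed was detected by NAD(P)H-Glo luminescence after 1 hour at RT.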

Row | IC50 [nM] | SMILES
1 | 100 to 1000 | Cn1nc(-c2cc(C(F)(F)F)c(F)c(O)c2F)c2cnc(N3CCOC(CO)C3)cc21 (centres unmarked) [Compound 9.97, 2,6-Difluoro-3-(6-(2-(hydroxymethyl)morpholino)-1-methyl-1H-pyrazolo[4,3-c]pyridin-3-yl)-5-(trifluoromethyl)phenol]
2 | < 100 | COCC1(Nc2cc3c(cn2)c(-c2cc(C(F)(F)F)c(F)c(O)c2F)nn3C)CCC1 [Compound 9.98, 2,6-Difluoro-3-(6-((1-(methoxymethyl)cyclobutyl)amino)-1-methyl-1H-pyrazolo[4,3-c]pyridin-3-yl)-5-(trifluoromethyl)phenol]
3 | < 100 | Cn1nc(-c2cc(C(F)(F)F)c(F)c(O)c2F)c2cnc(N3CCCC34CCOCC4)cc21 [Compound 9.99, 2,6-Difluoro-3-(1-methyl-6-(8-oxa-1-azaspiro[4.5]decan-1-yl)-1H-pyrazolo[4,3-c]pyridin-3-yl)-5-(trifluoromethyl)phenol]
4 | 100 to 1000 | Cn1nc(-c2cc(C(F)(F)F)c(F)c(O)c2F)c2cnc(N3[C@@H]4CNC[C@H]3COC4)cc21 [Compound 9.100, 3-(6-(cis-3-Oxa-7,9-diazabicyclo[3.3.1]nonan-9-yl)-1-methyl-1H-pyrazolo[4,3-c]pyridin-3-yl)-2,6-difluoro-5-(trifluoromethyl)phenol]
5 | 100 to 1000 | Cn1nc(-c2cc(C(F)(F)F)c(F)c(O)c2F)c2cnc(N3CCOCC3=O)cc21 [Compound 9.101, 4-(3-(2,4-Difluoro-3-hydroxy-5-(trifluoromethyl)phenyl)-1-methyl-1H-pyrazolo[4,3-c]pyridin-6-yl)morpholin-3-one]
6 | 100 to 1000 | CN1CCN(c2cc3c(cn2)c(-c2cc(C(F)(F)F)c(F)c(O)c2F)nn3C)C(=O)C1 [Compound 9.102, 1-(3-(2,4-Difluoro-3-hydroxy-5-(trifluoromethyl)phenyl)-1-methyl-1H-pyrazolo[4,3-c]pyridin-6-yl)-4-methylpiperazin-2-one]
7 | < 100 | CN(c1nc2c(cc1F)c(-c1cc(C(F)(F)F)c(F)c(O)c1F)nn2C)C1CCOCC1 [Compound 9.103, 2,6-Difluoro-3-(5-fluoro-1-methyl-6-(methyl(tetrahydro-2H-pyran-4-yl)amino)-1H-pyrazolo[3,4-b]pyridin-3-yl)-5-(trifluoromethyl)phenol]
8 | < 100 | Cn1nc(-c2cc(C(F)(F)F)c(F)c(O)c2F)c2cc(F)c(N3CCN(S(C)(=O)=O)CC34CC4)nc21 [Compound 9.104, 2,6-Difluoro-3-(5-fluoro-1-methyl-6-(7-(methylsulfonyl)-4,7-diazaspiro[2.5]octan-4-yl)-1H-pyrazolo[3,4-b]pyridin-3-yl)-5-(trifluoromethyl)phenol]
9 | < 100 | Cn1nc(-c2cc(C(F)(F)F)c(F)c(O)c2F)c2cc(F)c(N3CCCOCC34CC4)nc21 [Compound 9.105, 2,6-Difluoro-3-(5-fluoro-1-methyl-6-(8-oxa-4-azaspiro[2.6]nonan-4-yl)-1H-pyrazolo[3,4-b]pyridin-3-yl)-5-(trifluoromethyl)phenol]
10 | < 100 | COC1CCN(c2nc3c(cc2F)c(-c2cc(C(F)(F)F)c(F)c(O)c2F)nn3C)CC1 [Compound 9.106, 2,6-Difluoro-3-(5-fluoro-6-(4-methoxypiperidin-1-yl)-1-methyl-1H-pyrazolo[3,4-b]pyridin-3-yl)-5-(trifluoromethyl)phenol]
11 | < 100 | Cn1nc(-c2cc(C(F)(F)F)c(F)c(O)c2F)c2cc(F)c(N3CCOCC34CCC4)nc21 [Compound 9.107, 2,6-Difluoro-3-(5-fluoro-1-methyl-6-(8-oxa-5-azaspiro[3.5]nonan-5-yl)-1H-pyrazolo[3,4-b]pyridin-3-yl)-5-(trifluoromethyl)phenol]
12 | < 100 | Cn1nc(-c2cc(C(F)(F)F)c(F)c(O)c2F)c2cc(F)c(N3CCOC4(CCC4)C3)nc21 [Compound 9.108, 2,6-Difluoro-3-(5-fluoro-1-methyl-6-(5-oxa-8-azaspiro[3.5]nonan-8-yl)-1H-pyrazolo[3,4-b]pyridin-3-yl)-5-(trifluoromethyl)phenol]
13 | 100 to 1000 | Cn1nc(-c2ccc(F)c(O)c2F)c2cnc(N3CCOC4(CCC4)C3)cc21 [Compound 9.109, 2,6-Difluoro-3-(1-methyl-6-(5-oxa-8-azaspiro[3.5]nonan-8-yl)-1H-pyrazolo[4,3-c]pyridin-3-yl)phenol]
14 | < 100 | Cn1nc(-c2cc(C(F)(F)F)c(F)c(O)c2F)c2cnc(N3CCOCC34CCC4)nc21 [Compound 9.110, 2,6-Difluoro-3-(1-methyl-6-(8-oxa-5-azaspiro[3.5]nonan-5-yl)-1H-pyrazolo[3,4-d]pyrimidin-3-yl)-5-(trifluoromethyl)phenol]
15 | < 100 | Cn1nc(-c2cc(C(F)(F)F)c(F)c(O)c2F)c2cnc(N3CCNCC34CC4)cc21 [Compound 9.111, 2,6-Difluoro-3-(1-methyl-6-(4,7-diazaspiro[2.5]octan-4-yl)-1H-pyrazolo[4,3-c]pyridin-3-yl)-5-(trifluoromethyl)phenol]
16 | < 100 | CN1CCN(c2cc3c(cn2)c(-c2cc(C(F)(F)F)c(F)c(O)c2F)nn3C)C2(CC2)C1=O [Compound 9.112, 4-(3-(2,4-Difluoro-3-hydroxy-5-(trifluoromethyl)phenyl)-1-methyl-1H-pyrazolo[4,3-c]pyridin-6-yl)-7-methyl-4,7-diazaspiro [2.5]octan-8-one]
17 | 100 to 1000 | CCN1CCN(c2cc3c(cn2)c(-c2cc(C(F)(F)F)c(F)c(O)c2F)nn3C)C(=O)C1 [Compound 9.113, 1-(3-(2,4-Difluoro-3-hydroxy-5-(trifluoromethyl)phenyl)-1-methyl-1H-pyrazolo[4,3-c]pyridin-6-yl)-4-ethylpiperazin-2-one]
18 | < 100 | Cn1nc(-c2cc(C(F)(F)F)c(F)c(O)c2F)c2cnc(N3CC(=O)NCC34CC4)cc21 [Compound 9.114, 4-(3-(2,4-Difluoro-3-hydroxy-5-(trifluoromethyl)phenyl)-1-methyl-1H-pyrazolo[4,3-c]pyridin-6-yl)-4,7-diazaspiro[2.5]octan-6-one]
19 | 100 to 1000 | Cn1nc(-c2cc(C(F)(F)F)c(F)c(O)c2F)c2cnc(N3CC4(CC4)NCC3=O)cc21 [Compound 9.115, 7-(3-(2,4-Difluoro-3-hydroxy-5-(trifluoromethyl)phenyl)-1-methyl-1H-pyrazolo[4,3-c]pyridin-6-yl)-4,7-diazaspiro[2.5]octan-6-one]
20 | < 100 | CN(c1cc2c(cc1F)c(-c1cc(C(F)(F)F)c(F)c(O)c1F)nn2C)C1CCOCC1 [Compound 9.116, 2,6-Difluoro-3-(5-fluoro-1-methyl-6-(methyl(tetrahydro-2H-pyran-4-yl)amino)-1H-indazol-3-yl)-5-(trifluoromethyl)phenol]
21 | < 100 | Cn1nc(-c2cc(C(F)(F)F)c(F)c(O)c2F)c2cc(F)c(N3CCN(S(C)(=O)=O)CC34CC4)cc21 [Compound 9.117, 2,6-Difluoro-3-(5-fluoro-1-methyl-6-(7-(methylsulfonyl)-4,7-diazaspiro[2.5]octan-4-yl)-1H-indazol-3-yl)-5-(trifluoromethyl)phenol]
22 | < 100 | Cn1nc(-c2cc(C(F)(F)F)c(F)c(O)c2F)c2c(F)cc(N3CCOCC34CC4)cc21 [Compound 9.118, 2,6-Difluoro-3-(4-fluoro-1-methyl-6-(7-oxa-4-azaspiro[2.5]octan-4-yl)-1H-indazol-3-yl)-5-(trifluoromethyl)phenol]
23 | < 100 | Cn1nc(-c2cc(C(F)(F)F)c(F)c(O)c2F)c2ncc(N3CCOCC34CC4)cc21 [Compound 9.119, 2,6-Difluoro-3-(1-methyl-6-(7-oxa-4-azaspiro[2.5]octan-4-yl)-1H-pyrazolo[4,3-b]pyridin-3-yl)-5-(trifluoromethyl)phenol]
24 | 100 to 1000 | CN(c1cc2c(nn1)c(-c1cc(C(F)(F)F)c(F)c(O)c1F)nn2C)C1CCOCC1 [Compound 9.120, 2,6-Difluoro-3-(1-methyl-6-(methyl(tetrahydro-2H-pyran-4-yl)amino)-1H-pyrazolo[4,3-c]pyridazin-3-yl)-5-(trifluoromethyl)phenol]
25 | < 100 | Cn1nc(-c2cc(C(F)(F)F)c(F)c(O)c2F)c2cc(F)c(N3CCOCC34CC4)cc21 [Compound 9.121, 2,6-Difluoro-3-(5-fluoro-1-methyl-6-(7-oxa-4-azaspiro[2.5]octan-4-yl)-1H-indazol-3-yl)-5-(trifluoromethyl)phenol]
26 | < 100 | Cn1nc(-c2cc(C(F)(F)F)c(F)c(O)c2F)c2cnc(N3CCN(S(C)(=O)=O)CC34CC4)nc21 [Compound 9.122, 2,6-Difluoro-3-(1-methyl-6-(7-(methylsulfonyl)-4,7-diazaspiro[2.5]octan-4-yl)-1H-pyrazolo[3,4-d]pyrimidin-3-yl)-5-(trifluoromethyl)phenol]
27 | < 100 | Cn1nc(-c2cc(C(F)(F)F)c(F)c(O)c2F)c2cnc(N(Cc3ccccc3)C3CCOCC3)cc21 [Compound 9.123, 3-(6-(Benzyl(tetrahydro-2H-pyran-4-yl)amino)-1-methyl-1H-pyrazolo[4,3-c]pyridin-3-yl)-2,6-difluoro-5-(trifluoromethyl)phenol]
28 | < 100 | Cn1nc(-c2cc(C(F)(F)F)c(F)c(O)c2F)c2cnc(N3CCS(=O)(=O)CC34CCC4)cc21 [Compound 9.124, 5-(3-(2,4-Difluoro-3-hydroxy-5-(trifluoromethyl)phenyl)-1-methyl-1H-pyrazolo[4,3-c]pyridin-6-yl)-8-thia-5-azaspiro[3.5]nonane 8,8-dioxide]
29 | 100 to 1000 | Cn1nc(-c2cc(C(F)(F)F)c(F)c(O)c2F)c2cnc(N3CCS(=O)(=O)CC3(C)C)cc21 [Compound 9.125, 4-(3-(2,4-Difluoro-3-hydroxy-5-(trifluoromethyl)phenyl)-1-methyl-1H-pyrazolo[4,3-c]pyridin-6-yl)-3,3-dimethylthiomorpholine 1,1-dioxide]

— patent US20240083861A1, “HSD17B13 INHIBITORS AND USES THEREOF” (FL2022-001, Inc., priority 2020, published 2024)
